# Paper PMC10375895, “Repurposed Fenoprofen Targeting SaeR Attenuates Staphylococcus aureus Virulence in Implant-Associated Infections” (ACS Central Science, 2023)
# Molecular target: SaeR (response regulator) (Staphylococcus aureus, UniProt Q2G2G2)
# Experiment: SPR titration with purified SaeR ([…]); EMSA shows loss of hla promoter DNA binding
# Sequence of SaeR (response regulator) (Q2G2G2 whole entry): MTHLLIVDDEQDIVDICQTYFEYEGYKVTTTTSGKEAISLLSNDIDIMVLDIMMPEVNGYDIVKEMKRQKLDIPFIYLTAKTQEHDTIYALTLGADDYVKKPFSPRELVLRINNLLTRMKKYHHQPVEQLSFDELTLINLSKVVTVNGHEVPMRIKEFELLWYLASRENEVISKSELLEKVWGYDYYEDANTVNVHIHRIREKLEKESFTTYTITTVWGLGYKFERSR
structure (smiles),measurement,value
CC(C(=O)O)c1cccc(Oc2ccccc2)c1 (stereo not shown) [fenoprofen],Kd,16.5 µM
